In ChEMBL document CHEMBL3526145, “Metabolism, excretion, and pharmacokinetics of ((3,3-difluoropyrrolidin-1-yl)((2S,4S)-4-(4-(pyrimidin-2-yl)piperazin-1-yl)pyrrolidin-2-yl)methanone, a dipeptidyl peptidase inhibitor, in rat, dog and human” (Drug Metab Dispos, 2012):

Assays:
[1] = Drug level in urine of Sprague-Dawley rat treated with [14C]PF-00734200 at 5 mg/kg, po administered as single dose by LC-MS/MS method; assay type: ADME, organism-based; design: dose 5 mg/kg, route oral; details: in vivo
Canis familiaris = experiment: Total drug level in beagle dog treated with [14C]PF-00734200 assessed as total radio activity at 5 mg/kg, po administered as single dose […]; assay type: ADME, organism-based, Canis lupus familiaris; design: dose 5 mg/kg, route oral; details: in vivo
[2] = Drug level in feces of human treated with [14C]PF-00734200 at […], po administered as single dose by LC-MS/MS method; assay type: ADME, organism-based; design: route oral; details: in vivo
[3] = Retention time of the compound by HPLC method; assay type: physicochemical
Homo sapiens [4] = experiment: Total drug level in human treated with [14C]PF-00734200 assessed as total radio activity at […], po administered as single dose […]; assay type: ADME, organism-based; design: route oral; details: in vivo
Plasma [5] = experiment: Drug level in beagle dog plasma treated with [14C]PF-00734200 at 5 mg/kg, po administered as single dose by LC-MS/MS method; assay type: ADME, organism-based, Canis lupus familiaris; design: dose 5 mg/kg, route oral; details: in vivo
[6] = Drug level in urine of beagle dog treated with [14C]PF-00734200 at 5 mg/kg, po administered as single dose by LC-MS/MS method; assay type: ADME, organism-based, Canis lupus familiaris; design: dose 5 mg/kg, route oral; details: in vivo
Rattus norvegicus = experiment: Total drug level in Sprague-Dawley rat treated with [14C]PF-00734200 assessed as total radio activity at 5 mg/kg, po administered as single dose […]; assay type: ADME, organism-based; design: dose 5 mg/kg, route oral; details: in vivo
[7] = Drug level in urine of human treated with [14C]PF-00734200 at […], po administered as single dose by LC-MS/MS method; assay type: ADME, organism-based; design: route oral; details: in vivo
[8] = Drug level in feces of Sprague-Dawley rat treated with [14C]PF-00734200 at 5 mg/kg, po administered as single dose by LC-MS/MS method; assay type: ADME, organism-based; design: dose 5 mg/kg, route oral; details: in vivo
Plasma [9] = experiment: Drug level in Sprague-Dawley rat plasma treated with [14C]PF-00734200 at 5 mg/kg, po administered as single dose by LC-MS/MS method; assay type: ADME, organism-based; design: dose 5 mg/kg, route oral; details: in vivo
Cytochrome P450 2D6 = Cytochrome P450 2D6 (Homo sapiens, UniProt P10635); experiment: Drug level assessed as human CYP2D6-mediated compound formation from PF-00734200 by LC-MS/MS method; assay type: ADME; details: recombinant enzyme
[10] = Drug level in feces of beagle dog treated with [14C]PF-00734200 at 5 mg/kg, po administered as single dose by LC-MS/MS method; assay type: ADME, organism-based, Canis lupus familiaris; design: dose 5 mg/kg, route oral; details: in vivo
Serum = experiment: Drug level in human serum treated with [14C]PF-00734200 at […], po administered as single dose by LC-MS/MS method; assay type: ADME, organism-based; design: route oral; details: in vivo
Cytochrome P450 3A4 = Cytochrome P450 3A4 (Homo sapiens, UniProt P08684); experiment: Drug level assessed as human CYP3A4-mediated compound formation from PF-00734200 by LC-MS/MS method; assay type: ADME; details: recombinant enzyme
[11] = Drug recovery in human at […], po administered as single dose; assay type: ADME, organism-based; design: route oral; details: in vivo, read-out: Drug recovery
[12] = Drug metabolism in bile of bile duct-cannulated female Sprague-Dawley rat assessed as PF-00734200 level at 5 mg/kg, po administered as single dose by LC-MS/MS method; assay type: ADME, organism-based; design: dose 5 mg/kg, route oral; details: in vivo
[13] = Drug metabolism in bile of bile duct-cannulated male Sprague-Dawley rat assessed as PF-00734200 level at 5 mg/kg, po administered as single dose by LC-MS/MS method; assay type: ADME, organism-based; design: dose 5 mg/kg, route oral; details: in vivo
[14] = Drug excretion in Sprague-Dawley rat urine at 5 mg/kg, po administered as single dose; assay type: ADME, organism-based; design: dose 5 mg/kg, route oral; details: read-out: Drug excretion
[15] = Drug excretion in human feces at […], po administered as single dose; assay type: ADME, organism-based; design: route oral; details: faeces, read-out: Drug excretion
[16] = Drug excretion in beagle dog urine at 5 mg/kg, po administered as single dose; assay type: ADME, organism-based, Canis lupus familiaris; design: dose 5 mg/kg, route oral; details: read-out: Drug excretion
[17] = Drug excretion in human urine at […], po administered as single dose; assay type: ADME, organism-based; design: route oral; details: read-out: Drug excretion
[18] = Drug excretion in beagle dog feces at 5 mg/kg, po administered as single dose; assay type: ADME, organism-based, Canis lupus familiaris; design: dose 5 mg/kg, route oral; details: faeces, read-out: Drug excretion
Homo sapiens [19] = experiment: AUC (0 to infinity) in human at […], po administered as single dose; assay type: ADME, organism-based, Plasma; design: time infinity, route oral; details: in vivo
[20] = Drug recovery in beagle dog at 5 mg/kg, po administered as single dose; assay type: ADME, organism-based, Canis lupus familiaris; design: dose 5 mg/kg, route oral; details: in vivo, read-out: Drug recovery
[21] = Drug recovery in Sprague-Dawley rat at 5 mg/kg, po administered as single dose; assay type: ADME, organism-based; design: dose 5 mg/kg, route oral; details: in vivo, read-out: Drug recovery
Homo sapiens [22] = experiment: Cmax in human at […], po administered as single dose; assay type: ADME, organism-based; design: route oral; details: in vivo
[23] = Drug excretion in Sprague-Dawley rat feces at 5 mg/kg, po administered as single dose; assay type: ADME, organism-based; design: dose 5 mg/kg, route oral; details: faeces, read-out: Drug excretion
Homo sapiens [24] = experiment: AUC (0 to 168 hrs) in human at […], po administered as single dose; assay type: ADME, organism-based, Plasma; design: time < 168 hr, route oral; details: in vivo
[25] = Drug recovery in bile of bile duct-cannulated Sprague-Dawley rat at 5 mg/kg, po administered as single dose by LC-MS/MS method; assay type: ADME, organism-based; design: dose 5 mg/kg, route oral; details: read-out: Drug recovery
[26] = Drug level in bile of bile duct-cannulated Sprague-Dawley rat treated with [14C]PF-00734200 at 5 mg/kg, po administered as single dose by LC-MS/MS method; assay type: ADME, organism-based; design: dose 5 mg/kg, route oral; details: in vivo

Cytochrome P450 2D6, sequence (P10635 whole entry): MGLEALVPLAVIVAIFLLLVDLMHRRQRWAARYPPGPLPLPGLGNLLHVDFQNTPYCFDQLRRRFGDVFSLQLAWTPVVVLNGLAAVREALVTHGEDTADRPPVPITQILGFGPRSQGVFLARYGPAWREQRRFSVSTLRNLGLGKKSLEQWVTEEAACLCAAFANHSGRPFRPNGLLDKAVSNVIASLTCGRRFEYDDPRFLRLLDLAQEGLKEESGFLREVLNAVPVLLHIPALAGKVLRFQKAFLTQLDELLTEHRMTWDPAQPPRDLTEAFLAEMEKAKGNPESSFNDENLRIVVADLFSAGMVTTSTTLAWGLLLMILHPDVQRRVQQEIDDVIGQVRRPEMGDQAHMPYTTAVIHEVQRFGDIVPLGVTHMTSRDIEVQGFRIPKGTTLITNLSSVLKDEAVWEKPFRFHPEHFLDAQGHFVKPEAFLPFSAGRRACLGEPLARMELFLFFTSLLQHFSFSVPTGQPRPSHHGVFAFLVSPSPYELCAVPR
Cytochrome P450 3A4, sequence (P08684 whole entry): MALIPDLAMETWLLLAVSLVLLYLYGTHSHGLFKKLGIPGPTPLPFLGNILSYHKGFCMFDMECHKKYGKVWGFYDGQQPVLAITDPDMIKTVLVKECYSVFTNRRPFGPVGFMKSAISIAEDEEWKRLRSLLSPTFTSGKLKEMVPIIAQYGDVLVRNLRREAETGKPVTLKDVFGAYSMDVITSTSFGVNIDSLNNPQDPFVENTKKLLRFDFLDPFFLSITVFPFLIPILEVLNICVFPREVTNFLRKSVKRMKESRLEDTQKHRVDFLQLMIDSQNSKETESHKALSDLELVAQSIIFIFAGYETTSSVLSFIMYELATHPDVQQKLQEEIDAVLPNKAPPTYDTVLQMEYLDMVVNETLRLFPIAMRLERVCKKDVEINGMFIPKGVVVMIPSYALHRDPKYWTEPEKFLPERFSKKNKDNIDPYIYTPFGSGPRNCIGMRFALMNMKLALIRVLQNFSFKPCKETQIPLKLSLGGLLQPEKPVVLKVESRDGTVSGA

Compound | Drug uptake [1] [%] | Drug uptake (Canis familiaris) [%] | Retention_time [3] [min] | Drug uptake (Homo sapiens [4]) [%] | Drug uptake (Plasma [5]) [%] | Drug uptake [6] [%] | Drug uptake (Rattus norvegicus) [%] | Drug uptake [7] [%] | Drug uptake [8] [%] | Drug uptake (Plasma [9]) [%] | also measured
O=C(O)[C@@H]1C[C@H](N2CCN(c3ncccn3)CC2)CN1 | 3.2 | 2.5 | 5.6 | 2.3 | 1 | 2.5 | 5.5 | 1.1 | 2.3 | 8.4 | Drug uptake [2]: 1.2%
O=C([C@@H]1C[C@H](N2CCN([14c]3ncccn3)CC2)CN1)N1CCC(F)(F)C1 |  |  |  |  |  |  |  |  |  |  | dose excreted [11]: 87.2%; Drug metabolism [12]: metabolite_not_detected; Drug metabolism [13]: metabolite_not_detected; dose excreted [14]: 30.8%; dose excreted [15]: 10.4%; dose excreted [16]: 66.7%; dose excreted [17]: 76.8%; dose excreted [18]: 16.8%; AUC (Homo sapiens [19]): 2850 ng.Eq.hr/ml; dose excreted [20]: 92.2%; dose excreted [21]: 97.1%; Cmax (Homo sapiens [22]): 274 ng.Eq/ml; dose excreted [23]: 66%; AUC (Homo sapiens [24]): 2490 ng.Eq.hr/ml; dose excreted [25]: 62.1%
O=CN1C[C@@H](N2CCN(c3ncc(O)cn3)CC2)C[C@H]1C(=O)N1CCC(F)(F)C1 |  |  | 27.4 |  |  |  | 5.5 |  | 5.5 |  | 
O=C([C@@H]1C[C@H](N2CCN(c3ncc(O)cn3)CC2)CN1[C@@H]1O[C@H](CO)[C@@H](O)[C@H](O)[C@H]1O)N1CCC(F)(F)C1 |  |  | 28.2 |  |  |  |  |  |  |  | 
NC(=O)N1C[C@@H](N2CCN(c3ncc(O)cn3)CC2)C[C@H]1C(=O)N1CCC(F)(F)C1 |  |  | 26 |  |  | 0.6 |  |  |  |  | 

More lines, main results first:

Drug uptake [1] [%] | Drug uptake (Canis familiaris) [%] | Retention_time [3] [min] | Drug uptake (Homo sapiens [4]) [%] | Drug uptake (Plasma [5]) [%] | Drug uptake [6] [%] | Drug uptake (Rattus norvegicus) [%] | Drug uptake [7] [%] | Drug uptake [8] [%] | Drug uptake (Plasma [9]) [%] | Compound | also measured
7.3 | 39.1 | 25.5 | 20.6 | 13.7 | 30.1 | 39.6 | 17.9 | 32.3 | 2.7 | O=C([C@@H]1C[C@H](N2CCN(c3ncc(O)cn3)CC2)CN1)N1CCC(F)(F)C1 | Drug uptake [2]: 2.7%; Drug metabolism (Cytochrome P450 2D6): metabolite_detected; Drug uptake [10]: 9%; Drug uptake (Serum): 4%; Drug metabolism (Cytochrome P450 3A4): metabolite_detected
2.9 | 1 | 14.3 |  | 0.4 | 1 | 2.9 |  |  | 4.7 | O=C(O)[C@H]1O[C@@H](Oc2cnc(N3CCN([C@@H]4CN[C@H](C(=O)N5CCC(F)(F)C5)C4)CC3)nc2)[C@H](O)[C@@H](O)[C@@H]1O | Drug uptake [26]: 50.4%
 |  | 28.2 | 6 | 1.5 | 1.6 |  | 6 |  |  | O=C(O)[C@H]1O[C@@H](OC(=O)N2C[C@@H](N3CCN(c4ncccn4)CC3)C[C@H]2C(=O)N2CCC(F)(F)C2)[C@H](O)[C@@H](O)[C@@H]1O | Drug uptake (Serum): 1.2%
